Reference: a melting point compilation (Tetko et al.)

SMILES | melting point
N#Cc1cc(Cl)ccc1[N+](=O)[O-] | 89 to 94 °C
Cn1ccc(-c2cccc(C(=O)Oc3c(F)c(F)c(F)c(F)c3F)c2)n1 | 126 to 127 °C
O=C(O)C#CC(=O)O | 180 to 187 °C
CCOC(=O)NC1C(N(C)C)C2CCC1(C)C2(C)C (stereo unspecified) | 237 °C
CC(=O)C1=C(C)C(C)(O)NC1=O (stereo unspecified) | 172 to 174 °C
O=C(O)/C=C/c1ccc(F)c(F)c1 | 193 to 198 °C
CC12CCC3C(=CCc4cc(O)ccc43)C1CCC2=O (stereo unspecified) | 239 °C
NC(=O)NN=Cc1ccccc1 | 231 °C
c1cc2c(cc1OC1OCC3C(c4ccc5c(c4)OCO5)OCC13)OCO2 (stereo unspecified) | 93.5 °C
c1ccc2c(c1)ccc1ncccc12 | 94 °C
Clc1ccc(OCc2ccccc2)cc1 | 70 to 72 °C
O=S(=O)(CCSCCO)c1ccc(Cl)cc1 | 59 to 62 °C
Cc1ccc(S(=O)(=O)OC2CCC3(C)C(CCC4C5CCCC5(C)CCC43)C2)cc1 (stereo unspecified) | 129 to 131 °C
O=C(O)c1ccccc1Cn1cncn1 | 206 to 207 °C
Oc1ccc2ccccc2c1/N=N/c1ccc(/N=N\c2ccccc2)cc1 | 199 °C
Cn1nc([N+](=O)[O-])c2c(=O)cc[nH]c21 | 222 to 224 °C
COC(=O)CCc1cc2c(cc1NC(C)=O)NC(=O)CC2 | 245 °C
CCOC(=O)c1sc(-c2ccccn2)nc1CBr | 102 °C
O=C(O)Cc1ccc(F)c(Cl)c1 | 57 °C
CC(=O)C1CCC2C3CCC4=CC(=O)CCC4(C)C3C(=O)CC12C (stereo unspecified) | 172 °C
Cc1ccc(S(=O)(=O)N2CCCN(S(=O)(=O)c3ccc(C)cc3)CC(=O)NCCCNC(=O)C2)cc1 | 159 °C
C=CC(Cl)CCl (stereo unspecified) | -61 °C

SMILES | melting point
OC1(C#Cc2ccccc2)Cc2ccccc21 (stereo unspecified) | 99 °C
COC(=O)c1sccc1Br | 50 to 51 °C
CCOC(=O)c1sc2sc(C(=O)OCC)c(N=C3SCCS3)c2c1N=C1SCCS1 | 198 °C
CCOc1ccc(Cc2nccc3cc(OCC)c(OCC)cc23)cc1OCC | 100 °C
Brc1noc2ncccc12 | 135 °C
c1ccc2nsnc2c1 | 43 °C
OC(C1CCCCC1)(C1CCCCC1)C1CCCCC1 | 94 to 96 °C
O=C(OC(=O)c1ccc(C(F)(F)F)cc1)c1ccc(C(F)(F)F)cc1 | 130 °C
CC(=O)Oc1cc(OC(C)=O)c2c(=O)c(OC(C)=O)c(-c3ccc(OCc4ccccc4)cc3)oc2c1 | 150 °C
Cc1cccc(N/N=C2/C(=O)N(c3ccccc3)N=C2C(F)(F)F)c1 | 161 °C
CCOC(=O)/C(C#N)=C/c1ccc(-c2ccc(Br)cc2)o1 | 167 °C
CCOC=C(C#N)S(=O)(=O)c1ccc(Cl)cc1 | 121 to 124 °C
O=[N+]([O-])c1cccc(F)c1O | 92.5 °C
Cc1nnc2sc(SCc3ccc(Cl)cc3)nn2c1=O | 171 to 172 °C
COc1ccc2cc(-c3ccn[nH]3)ccc2c1 | 201 °C
O=C(OOC(=O)c1ccc(Cl)cc1Cl)c1ccc(Cl)cc1Cl | 106 °C
O=C(O)c1ccno1 | 143 °C
COc1ccc2nsnc2c1 | 82 to 83 °C
O=[N+]([O-])c1c(O)ccc2ccccc12 | 104 °C
NC(=O)c1cnn(CCO)c1N | 239 °C
COc1cc2c(cc1OC)CC2 | 91 °C
ClC1=C(Cl)C2(Cl)C3C4OC4(Cl)C(Cl)C3C1(Cl)C2(Cl)Cl (stereo unspecified) | 144 °C

SMILES | melting point
CC(C)(C)OC(=O)N1CCC(Oc2ccccc2N)CC1 | 71 to 78 °C
O=C(Nc1ccccc1)c1cc(Cl)ccc1O | 211 °C
COc1cc2nc[nH]c(=O)c2cc1OC | 250 °C
Cc1nc(-c2ccccc2)sc1Br | 60 °C
Cc1ncc([N+](=O)[O-])n1CCCN1C(=O)c2ccccc2C1=O | 168 to 169 °C
CC(=NO)c1ccc(F)cc1 | 72 to 74 °C
NCc1ccccc1 | 10 °C
O=S(=O)(c1ccccc1)N1CCNCC1 | 111 to 112 °C
C=C(C)C(=O)OCCCC | -75 °C
CC12CCC(=O)CC1CCC1C2CCC2(C)C1CCC21OCCO1 (stereo unspecified) | 192 to 196 °C
CCCc1nn(C)c2c(=O)nc(-c3cc(S(=O)(=O)N4CCN(C)CC4)ccc3OCC)[nH]c12 | 190 °C
C=CCN(CC=C)C(SC)=C(C#N)C(N)=O | 110 °C
COc1ccc2oc(CCC(C)=O)c(-c3ccc(C)o3)c2c1 | 36 °C
Nc1c(C(=O)O)cnc2c(C(=O)O)cnn12 | 256 °C
O=S(=O)(SS(=O)(=O)c1ccccc1)c1ccccc1 | 129 to 134 °C
COCCCn1c(-c2ccc(C(C)(C)C)cc2)n[nH]c1=S | 116 to 118 °C
CC1C(=O)C23C4CC5C(C)(C)CCC(O)C56COC(CC1C2OC(C)(C)O4)C63 (stereo unspecified) | 204 °C
C=C(C(=O)O)c1ccccc1 | 106 °C
Nc1c2c(nc3ccccc13)CCCC2O (stereo unspecified) | 245 °C
NCCCC(O)(P(=O)(O)O)P(=O)(O)O | 234 °C
FC(F)(F)C(F)(Cl)Cl | -56.6 °C
CC(C)(C)OC(=O)NCC(N)=S | 129 to 131 °C

SMILES | melting point
CCCCCc1ccc(C(C)=NO)cc1 | 68 °C
Oc1ccc(C=Nc2ccccc2N=Cc2ccc(O)cc2O)c(O)c1 | 163 to 165 °C
N#Cc1cccc(F)c1 | -16 °C
Cc1ccc(Cl)c(C)c1 | -32.5 °C
O=S(=O)(Cl)c1ccc(F)cc1 | 36.5 °C
C=CC[Si](c1ccccc1)(c1ccccc1)c1ccccc1 | 88 to 90 °C
COC(=O)C=P(c1ccccc1)(c1ccccc1)c1ccccc1 | 164 to 169 °C
O=[N+]([O-])c1cccc2cn[nH]c12 | 187 °C
Brc1ccc(Oc2ccccc2Br)cc1Br | < 20 °C
COC(=O)c1sccc1NN | 69 to 71 °C
CC12CCC3C(CCC4CCCCC43C)C1CCC2=O (stereo unspecified) | 121 °C
Br/C=C/Br | -6.5 °C
FC(F)(F)CBr | -93.9 °C
CCCCCCOc1ccccc1C(N)=O | 71 °C
O=CC(C=O)c1ccccc1[N+](=O)[O-] | 118 to 123 °C
CCCC(C)O (stereo unspecified) | -73 °C
CC(=O)C12CC3CC(CC(C3)C1)C2 | 53 to 55 °C
O=[N+]([O-])c1cc(C(F)(F)F)c(Cl)cc1Cl | 55 °C
Cc1c(S(=O)(=O)c2ccc(Cl)cc2)csc1C(=O)Cl | 131 to 132 °C
Brc1ccc2c(c1)OCCOCCOCCOCCO2 | 66 to 71 °C
OCc1ccccc1Cc1ccccc1 | 37 to 41 °C
COc1ccc(CC(N)=O)cc1 | 186 °C

SMILES | melting point
Cn1nc(-c2cc(OCC(=O)O)c(Cl)cc2F)c(Cl)c1OC(F)F | 126 °C
CC(C)C(C)(C)[Si](C)(C)Cl | 15 °C
Cc1ccnc(Cl)c1N | 66 °C
Cc1cncc(Cl)n1 | 48 to 52 °C
Cc1c(Cl)ccc(OC(C)C(=O)Nc2ccccc2)c1Cl (stereo unspecified) | 146 °C
CCOc1ccc2nc(S(N)(=O)=O)sc2c1 | 188 °C
CCOc1ccc(-c2nnc3n2NC(c2ccccc2)S3)cc1 (stereo unspecified) | 118 °C
N#Cc1ccc(CCl)cc1 | 79 °C
CC(/C=C/c1ccccc1)=C\C(C)=N\Nc1ccc([N+](=O)[O-])cc1[N+](=O)[O-] | 232 to 234 °C
CCCCNC(=O)NCCCC | 74 to 75 °C
O=CC1CC=CCC1 (stereo unspecified) | 2 °C
CCCCCCCCSC(=O)Oc1cc(Cl)nnc1-c1ccccc1 | 27 °C
c1ccc(C2=NN(c3ccccc3)C2)cc1 | 138 °C
O=C(O)Cc1ccsc1 | 79 °C
NNC(=O)c1cnn(-c2ccc(Cl)cc2)c1C(F)(F)F | 179 to 181 °C
CCCc1ccc(C(=O)CCC(=O)O)cc1 | 117 to 119 °C
O/N=C(\Cc1ccccc1)c1ccc2c3c(cccc13)CC2 | 138 °C
N#Cc1cc([N+](=O)[O-])cc(Br)c1N | 188 °C
Nc1cnn(-c2ccccc2)c(=O)c1Br | 224 °C
OCc1scc2c1OCCO2 | 68 to 69 °C
O=C(O)c1sccc1C1OCCO1 | 142 to 144 °C
NCCN(CCN)CCN | -16 °C

SMILES | melting point
CN1C(=O)N2CCc3ccccc3C2(c2ccc(Cl)cc2)C1=O (stereo unspecified) | 121 to 122 °C
Cn1nc(C(=O)O)c2ccccc21 | 213 to 221 °C
CCOC(=O)c1ccc(F)cc1F | 65 to 67 °C
CN(N)c1cnc2ccccc2n1 | 107 to 108 °C
Nc1ccc(NC(=O)c2ccc(N)cc2)cc1 | 203 to 207 °C
O=C=Nc1ccccc1Cl | 30.5 °C
Cn1c(/C(C#N)=N/Nc2ccccc2Cl)nc2ccccc21 | 193 °C
Nc1ccccc1-n1cccn1 | 44 to 46 °C
N[C@@H](CO)c1ccccc1 | 75 to 79 °C
Brc1ccc2occ(Br)c2c1 | 77 to 78 °C
CC(=O)OC1CC[C@@]2(C)C(CC[C@@H]3[C@@H]2CC[C@@]2(C)[C@H]3CC[C@]2(O)C#Cc2ccccc2)C1 (stereo partly specified) | 170 to 171 °C
Cc1ccc2ccc3ccc(C)cc3c2c1 | 145 °C
O=CCC=O | 72 °C
Nc1ncccc1Br | 66 °C
CCCCCCCCCCCCCCCCCC(=O)OCC(COC(=O)CCCCCCCCCCCCCCCCC)OC(=O)CCCCCCCCCCCCCCCCC | 55 °C
NNC(=O)c1csc(CS(=O)(=O)c2ccc(Cl)cc2)n1 | 206 to 207 °C
COc1ccc(C(=O)O)cc1OCc1ccccc1 | 180 °C
CCOC(=O)/C(=N\Nc1ccc(Cl)cc1)C(=O)C(F)(F)F | 75 to 76 °C
NC(=S)Nc1ccc(C(F)(F)F)cc1 | 144 to 145 °C
CC1=C(C(=O)OC(C)C)C(c2ccco2)NC(=O)N1 (stereo unspecified) | 205 °C
OC1CC2CCC1C2 (stereo unspecified) | 149 °C
